{
  "source": "patent US10059699B2",
  "about": "“Tetrahydroquinoline derivatives as bromodomain inhibitors” (GlaxoSmithKline Intellectual Property (No.2) Limited, priority 2014, dated 2018)",
  "key": {"Immunoglobulin-1 (IgG1)": {"tested_on": "Immunoglobulin-1 (IgG1)", "assay": "TNP-KLH induced IgG1 production mouse assay", "format": "in vivo, mice", "details": "30 mg/kg oral; for Day 14 IgG1: 14 day dosing, male CD1 mice; for % reduction in IgG1 from vehicle: day 14", "description": "The compound was assayed for its ability to inhibit trinitrophenol-keyhole limpet hemocyanin (TNP-KLH) induced Immunoglobulin-1 (IgG1) production in mice. Male CD1 mice (Charles River Laboratories, 8 per group) received a single oral administration of compound (in 1% (w/v) methylcellulose, aq 400) either once every day (QD), once every other day (QOD) or once every 72 hours (QOED) over a 14 day dosing period. On day 1 of the study, each mouse received a single bolus intraperitoneal (ip) administration of TNP-KLH (100 μg/kg, T-5060-25, Lot #021562-06) 1 hour after oral administration of compound. Serial blood samples were collected at 1 hour post oral compound administration via tail veil on days 1, 4, 7, 9 and 11 or via cardiac puncture (terminal sample) on day 14 and the serum harvested from the blood samples was frozen at −80° C. On the day of analysis, the serum was thawed to room temperature and levels of IgG1 were measured using a TNP ELISA (developed in-house) and read on a SpectraMax 190 spectrophotometer (Molecular Devices, CA). The mean IgG1 values were generated and the mean percent IgG1 reduction on day 14 following treatment with compound was calculated compared to the corresponding vehicle treated group. Levels of significance were calculated by analysis of variance (ANOVA) followed by Dunnett's multiple comparison t-test using Graphpad Prism version 5.04 (Graphpad Software, San Diego, Calif.). Statistical differences were determined as […]."}, "TNFα": {"tested_on": "TNFα", "assay": "LPS induced secretion of TNFα from whole blood", "format": "cell-based", "details": "human whole blood, LPS 200 ng/mL, n=4; read-out: pIC50, LPS induced TNFα secretion (converted)", "description": "Activation in whole blood of predominantly monocytic cells by agonists of toll-like receptors such as bacterial lipopolysaccharide (LPS) results in production of key inflammatory mediators, including TNFα. Such pathways are widely considered to be central to the pathophysiology of a range of auto-immune and inflammatory disorders.\nHuman Whole Blood from 2 donors (n=2) is collected using Sodium heparin as anti-coagulent (Wockhardt cat# FP1712) (10 units of heparin/mL of blood). Compounds were prepared as [10 mM] DMSO stocks and then diluted such that the top starting concentration was [1.4 mM] followed by 8×3-fold dilutions in DMSO. Final assay concentrations start at [10 μM] for all compounds. 1 μL diluted compound was added per well in a 96-well U bottom plate. 1 μL DMSO only was added to column 10 (+ve control) and 1-((2S,4R)-2-methyl-4-(phenylamino)-6-(4-(piperidin-1-ylmethyl)phenyl)-3,4-dihydroquinolin-1(2H)-yl)ethanone (for a preparation see Compound 28, J. Med. Chem. 2014, 57, 8111-8131, 1 μL, 1.4 mM) added to column 11 (−ve control). […] 150 μL of 2×MSD Read Buffer T (stock 4×MSD Read Buffer T was diluted 50:50 with de-ionised water) was then added to each well and the plates read on the MSD Sector Imager 6000. Concentration response curves for each compound were generated from the data using internal XC50 analysis and an IC50 value was calculated."}, "hERG": {"target": "hERG (Homo sapiens, UniProt Q12809)", "sequence (Q12809 whole entry)": "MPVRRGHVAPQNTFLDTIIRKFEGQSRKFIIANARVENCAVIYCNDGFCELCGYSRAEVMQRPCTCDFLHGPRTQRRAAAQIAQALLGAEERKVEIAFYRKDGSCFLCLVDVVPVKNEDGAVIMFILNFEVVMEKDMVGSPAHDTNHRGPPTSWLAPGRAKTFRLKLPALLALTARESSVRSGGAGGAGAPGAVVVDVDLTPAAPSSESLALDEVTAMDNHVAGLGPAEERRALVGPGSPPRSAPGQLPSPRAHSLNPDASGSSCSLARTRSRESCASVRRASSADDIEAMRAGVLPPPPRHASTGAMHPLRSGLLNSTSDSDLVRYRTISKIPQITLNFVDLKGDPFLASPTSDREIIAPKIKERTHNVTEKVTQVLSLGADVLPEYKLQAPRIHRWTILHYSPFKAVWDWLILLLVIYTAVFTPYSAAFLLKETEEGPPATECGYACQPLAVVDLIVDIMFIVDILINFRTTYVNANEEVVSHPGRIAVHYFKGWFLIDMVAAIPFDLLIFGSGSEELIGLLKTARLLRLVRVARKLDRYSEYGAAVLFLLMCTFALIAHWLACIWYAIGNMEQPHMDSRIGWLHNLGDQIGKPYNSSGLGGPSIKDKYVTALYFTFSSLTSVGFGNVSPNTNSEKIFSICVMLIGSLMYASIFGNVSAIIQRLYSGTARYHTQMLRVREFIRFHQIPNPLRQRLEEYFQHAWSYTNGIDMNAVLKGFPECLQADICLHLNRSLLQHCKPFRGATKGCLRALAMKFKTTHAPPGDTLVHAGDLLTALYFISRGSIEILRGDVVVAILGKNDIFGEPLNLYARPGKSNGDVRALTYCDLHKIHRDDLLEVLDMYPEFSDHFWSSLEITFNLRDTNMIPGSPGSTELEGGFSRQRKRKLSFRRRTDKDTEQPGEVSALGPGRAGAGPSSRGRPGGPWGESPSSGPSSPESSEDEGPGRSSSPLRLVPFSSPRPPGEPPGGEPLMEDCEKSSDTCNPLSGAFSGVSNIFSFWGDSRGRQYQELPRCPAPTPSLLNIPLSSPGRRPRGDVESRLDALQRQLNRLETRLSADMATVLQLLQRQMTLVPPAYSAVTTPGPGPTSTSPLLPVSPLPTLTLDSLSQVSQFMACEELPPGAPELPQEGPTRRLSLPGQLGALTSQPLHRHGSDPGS", "assay": "hERG liability"}, "interleukin-6 (IL-6)": {"tested_on": "interleukin-6 (IL-6)", "assay": "LPS induced IL-6 production mouse assay", "format": "in vivo", "details": "male CD1 mice; for IL-6 Cmax: LPS iv 1 hour after dosing", "description": "The compound was assayed for its ability to inhibit lipopolysaccharide (LPS) induced interleukin-6 (IL-6) production in mice. Male CD1 mice (Charles River Laboratories, 5 per group) received an intravenous challenge of LPS (100 μg/kg, L3192 E coli 0127:B8) 1 hour after oral administration of compound (in 1% (w/v) methylcellulose, aq 400). Serial blood samples were collected via teil vein up to 4 hours or via cardiac puncture at 6 hours (terminal sample) post oral drug administration and the serum harvested from the blood samples was frozen at −80° C. On the day of analysis, the serum was thawed to room temperature and levels of IL-6 were measured using single-spot cytokine assay plates (K152QXD) from Meso Scale Discovery (MSD, Gaithersburg, Md.). The levels of IL-6 were detected according to the manufacturer's protocol (MSD) and read on a SECTOR imager 6000 (MSD). The mean IL-6 Cmax and AUC0-t values were generated using WinNonlin Phoenix version 6.3 and the mean percent Cmax and AUC0-t IL-6 reduction following treatment with compound was calculated compared to the corresponding vehicle treated group. Levels of significance were calculated by analysis of variance (ANOVA) followed by Dunnett's multiple comparison t-test using Graphpad Prism version 5.04 (Graphpad Software, San Diego, Calif.). Statistical differences were determined as *P<0.05, **P<0.01."}},
  "note": "Marks after values point to notes of the source that are not given here.",
  "data": [
    {"smiles": "CC(=O)N1c2ccc(C(N)=O)cc2[C@H](Nc2ncc(Cl)cn2)C[C@@H]1C", "note": "[Example 14, (2S,4R)-1-acetyl-4-((5-chloropyrimidin-2-yl)amino)-2-methyl-1,2,3,4-tetrahydroquinoline-6-carboxamide]", "values": [
      {"measurement": "Day 14 IgG1", "setting": "Immunoglobulin-1 (IgG1); QD", "value": 127, "unit": "ng/mL"},
      {"measurement": "% reduction in IgG1 from vehicle", "setting": "Immunoglobulin-1 (IgG1); QD", "value": "98*** %"},
      {"measurement": "Day 14 IgG1", "setting": "Immunoglobulin-1 (IgG1); QOD", "value": 373, "unit": "ng/mL"},
      {"measurement": "% reduction in IgG1 from vehicle", "setting": "Immunoglobulin-1 (IgG1); QOD", "value": "93*** %"},
      {"measurement": "Day 14 IgG1", "setting": "Immunoglobulin-1 (IgG1); QOED (every 72 hours)", "value": 3162, "unit": "ng/mL"},
      {"measurement": "% reduction in IgG1 from vehicle", "setting": "Immunoglobulin-1 (IgG1)", "value": 41, "unit": "%"},
      {"measurement": "IC50", "setting": "TNFα", "value": 63.1, "unit": "nM"},
      {"measurement": "hERG liability", "setting": "hERG", "value": "no hERG liability"},
      {"measurement": "% reduction in IL-6 AUC from vehicle", "setting": "interleukin-6 (IL-6); 1 mg/kg oral", "value": "49* %"},
      {"measurement": "% reduction in IL-6 Cmax from vehicle", "setting": "interleukin-6 (IL-6); 1 mg/kg oral", "value": 58, "unit": "%"},
      {"measurement": "IL-6 AUC0-t", "setting": "interleukin-6 (IL-6); 1 mg/kg oral", "value": 554, "unit": "ng·h/mL"},
      {"measurement": "IL-6 Cmax", "setting": "interleukin-6 (IL-6); 1 mg/kg oral", "value": 291, "unit": "ng/mL"},
      {"measurement": "% reduction in IL-6 AUC from vehicle", "setting": "interleukin-6 (IL-6); 3 mg/kg oral", "value": "55** %"},
      {"measurement": "% reduction in IL-6 Cmax from vehicle", "setting": "interleukin-6 (IL-6); 3 mg/kg oral", "value": 48, "unit": "%"},
      {"measurement": "IL-6 AUC0-t", "setting": "interleukin-6 (IL-6); 3 mg/kg oral", "value": 495, "unit": "ng·h/mL"},
      {"measurement": "IL-6 Cmax", "setting": "interleukin-6 (IL-6); 3 mg/kg oral", "value": 357, "unit": "ng/mL"},
      {"measurement": "% reduction in IL-6 AUC from vehicle", "setting": "interleukin-6 (IL-6); 10 mg/kg oral", "value": "48* %"},
      {"measurement": "% reduction in IL-6 Cmax from vehicle", "setting": "interleukin-6 (IL-6); 10 mg/kg oral", "value": "62* %"},
      {"measurement": "IL-6 AUC0-t", "setting": "interleukin-6 (IL-6); 10 mg/kg oral", "value": 563, "unit": "ng·h/mL"},
      {"measurement": "IL-6 Cmax", "setting": "interleukin-6 (IL-6); 10 mg/kg oral", "value": 258, "unit": "ng/mL"}
    ]}
  ]
}
